# According to patent US6066672A, “Amino compounds and angiotensin IV receptor agonists” (Taisho Pharmaceutical Co., Ltd., priority 1996, dated 2000):
# Counter-ions that a name gives are not always drawn.
# Target: T1, angiotensin IV receptor (Cavia porcellus, UniProt H0VNM7)
# T1 construct: The Hartley guinea pig hippocampus was homogenized in a 50 mM Tris hydrochloride buffer solution; from tissue; host or cells: Hartley guinea pig hippocampus, crude membrane (48,000 x g precipitate)
# T1 sequence (H0VNM7 1-1025): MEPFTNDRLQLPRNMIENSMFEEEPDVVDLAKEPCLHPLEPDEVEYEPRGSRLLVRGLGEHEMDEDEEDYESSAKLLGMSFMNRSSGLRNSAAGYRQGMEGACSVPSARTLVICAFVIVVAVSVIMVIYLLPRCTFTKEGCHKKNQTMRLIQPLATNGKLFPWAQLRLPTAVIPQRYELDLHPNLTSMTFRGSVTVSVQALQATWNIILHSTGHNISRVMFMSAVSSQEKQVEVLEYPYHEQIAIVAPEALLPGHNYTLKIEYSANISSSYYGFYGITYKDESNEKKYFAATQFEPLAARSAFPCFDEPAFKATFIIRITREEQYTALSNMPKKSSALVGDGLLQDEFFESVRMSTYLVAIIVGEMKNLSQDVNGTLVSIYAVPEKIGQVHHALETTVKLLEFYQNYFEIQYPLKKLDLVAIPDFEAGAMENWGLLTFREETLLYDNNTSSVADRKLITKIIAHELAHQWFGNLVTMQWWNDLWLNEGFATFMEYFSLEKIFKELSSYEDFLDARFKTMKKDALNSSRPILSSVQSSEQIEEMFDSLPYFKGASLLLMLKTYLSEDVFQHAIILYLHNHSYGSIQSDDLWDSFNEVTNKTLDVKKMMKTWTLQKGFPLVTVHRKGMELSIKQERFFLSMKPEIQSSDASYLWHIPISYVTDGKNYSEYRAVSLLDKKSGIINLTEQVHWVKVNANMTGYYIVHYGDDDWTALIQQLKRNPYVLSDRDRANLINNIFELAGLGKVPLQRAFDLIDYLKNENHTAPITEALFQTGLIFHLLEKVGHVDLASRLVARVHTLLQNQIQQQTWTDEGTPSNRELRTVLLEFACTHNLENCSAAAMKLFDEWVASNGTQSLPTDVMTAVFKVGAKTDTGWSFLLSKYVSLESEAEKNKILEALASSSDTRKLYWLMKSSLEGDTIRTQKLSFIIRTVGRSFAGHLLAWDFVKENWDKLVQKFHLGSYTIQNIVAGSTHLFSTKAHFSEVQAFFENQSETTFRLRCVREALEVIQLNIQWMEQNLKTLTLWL
# Test: binding capability to angiotensin IV receptor, inhibition of 125I-angiotensin IV binding to guinea pig hippocampus membrane
# Settings: 0.2 nM 125I-angiotensin IV, Hartley guinea pig hippocampus crude membrane, 37° C., 90 minutes, pH 7.4
# Method: The binding capability to angiotensin IV receptor was measured by using Hartley guinea pig hippocampus referring to the method described by Miller-Wing et al., J. Pharmacol. Exp. Ther., vol. 266, pp.1718 (1993). The Hartley guinea pig hippocampus was homogenized in a 50 mM Tris hydrochloride buffer solution (pH 7.4) containing 1 mM ethylenediamine-N,N,N',N'-tetraacetic acid (EDTA) and 100 μM phenylmethanesulfonyl fluoride (PMSF). After centrifugation at 900× g, the resulting supernatant was further centrifuged at 48,000× g. The precipitate was washed once with the same buffer solution and suspended in 50 mM Tris hydrochloride buffer solution (pH 7.4) containing 150 mM sodium chloride, 1 mM EDTA, 100 μM PMSF and 0.1% bovine serum albumin (BSA) to give a protein concentration of […] as a crude membrane specimen. […] The radioactivity on the filter paper was measured by using a gamma-counter. The non-specific bond was measured in the presence of 1 μM angiotensin IV, and the specific bond was calculated by subtracting the non-specific bond from the total bond.
row,IC50,Compound
1,38.5 nM,"CCCC[C@H](N)CN[C@@H](Cc1ccc(O)cc1)C(=O)N[C@H](CC)CC(C)C [Example 26, N'-[(S)-2-aminohexyl]-N-[(R)-1-ethyl-3-methylbutyl]-L-tyrosinamide dihydrochloride]"
2,6 nM,"CCCC[C@H](N)CN[C@@H](Cc1ccc(O)cc1)C(=O)N[C@H](/C=C/c1ccc(-c2ccccc2)cc1)CC(C)C [Example 21, N'-[(S)-2-aminohexyl]-N-[(S)-(E)-3-([1,1'-biphenyl]-4-yl)-1-(2-methylpropyl)-2-propenyl]-L-tyrosinamide dihydrochloride]"

# The remaining lines, values behind:
row,Compound,IC50
1,"CCCC[C@H](N)CN[C@@H](Cc1ccc(O)cc1)C(=O)N[C@@H](CCc1ccncc1)CC(C)C [Example 10, N'-[(S)-2-aminohexyl]-N-[(S)-3-methyl-1-[2-(4-pyridyl)ethyl]butyl]-L-tyrosinamide trihydrochloride]",81.1 nM
2,"CCCC[C@H](N)CN[C@@H](Cc1ccc(O)cc1)C(=O)N[C@H](CCc1ccccc1)CC(C)C [Example 18, N'-[(S)-2-aminohexyl]-N-[(R)-3-methyl-1-[2-phenylethyl]butyl]-L-tyrosinamide dihydrochloride]",8.7 nM
3,"CCCC[C@H](N)CN[C@@H](Cc1ccc(O)cc1)C(=O)N[C@H](/C=C/c1ccc(Cl)cc1)CC(C)C [Example 19, N'-((S)-2-aminohexyl]-N-[(S)-(E)-3-(4-chlorophenyl)-1-(2-methylpropyl)-2-propenyl]-L-tyrosinamide dihydrochloride]",0.53 nM
4,"CCCC[C@H](N)CN[C@@H](Cc1ccc(O)cc1)C(=O)N[C@H](/C=C/c1ccncc1)CC(C)C [Example 7, N'-[(S)-2-aminohexyl]-N-[(S)-(E)-1-(2-methylpropyl)-3-(4-pyridyl)-2-propenyl]-L-tyrosinamide trihydrochloride]",0.93 nM
